The test system of test [1] is VEGF. Description: Expression of VEGF protein in SW480 cells treated with compound (FIG. 4). Type of test: cell-based. The note with it: normoxia 6 h (FIG. 4). The text has this:
(§1) Normoxia refers to a regular cell culture condition at 21% oxygen concentration.

The next test concerns HIF-1α. Description: Expression of HIF-1α protein in cancer cell lines treated with compound (FIGS. 1-4, 29, 30, 32). Type of test: cell-based.
Source text: (§2) Hypoxic conditions (0.5% O2) were achieved by culturing cells in a hypoxia chamber (HypOxygen H35 HypOxystation) which controls and maintains a stable level of oxygen, carbon dioxide, temperature and humidity.
as §1

The test system of another test is PGK1. Description: Luciferase reporter assay, PGK1-HRE::dLUC (HCT116 or SW480 stable cell lines). The note with it: HCT116 and SW480, normoxia and hypoxia, 6 h (FIGS. 5-24). In kind it is cell-based, human. As for the experimental part: (§3) HCT116 or SW480 cells were transfected using lipofectamine 2000 (Invitrogen, USA) with pGL4.22-VEGF-HRE::dLUC or pGL4.22-PGK1-HRE::dLUC plasmids expressing the luciferase reporter with hypoxia response element (HRE) derived from the human PGK1 promoter or the human VEGF promoter (Walton Z. E. et al., Cell. 2018 Jun. 28; 174(1):72-87). Cells were cultured and selected in 2 μg/mL (for HCT116) or 4 μg/mL (for SW480) puromycin-containing DMEM medium (Cytiva HyClone) after 24 h of transfection. Individual clones were picked and expanded. Verification of the luciferase reporter-bearing cells were performed by measuring the bioluminescence in hypoxia upon addition of the substrate (luciferin) using the IVIS imaging system.
(§4) Luciferase-reporter expressing cells were seeded in 96-well black plates at a density of 2~4×10^4 cells/well. Treatment with compounds were performed on the next day for 6 h under normoxia or hypoxia. After substrate (luciferin) addition, plates were imaged for luminescence intensity in the IVIS imaging system.
as §2, §1

Test [2] relates to VEGF. Description: Luciferase reporter assay, VEGF-HRE::dLUC (HCT116 or SW480 stable cell lines). In kind it is cell-based, human. As for the experimental part: as §3, §4, §2, §1
(In general: In a reporter assay the amount or activity of a reporter protein is the signal.)

For test [3], the system named is erythropoietin (EPO) mRNA. Description: EPO mRNA expression in HCT116 cells by real-time PCR. Type of test: cell-based. The note with it: HCT116, normoxia or hypoxia, indicated durations (FIG. 31). As for the experimental part: Total RNA was extracted from cells using the RNeasy Mini Kit (Qiagen). cDNA was obtained by reverse transcription with random primers using the SuperScript II First-Strand Synthesis System (Invitrogen). Real-time PCR reactions were performed with SYBR Green Master Mix (Applied Biosystems) using the QuantStudio™ 6 Pro Real-Time PCR System.
as §2, §1
Cells were treated for indicated durations in normoxia or hypoxia. Extracted RNA was analyzed by real-time PCR. M: MG132 (5 μM). Statistic analysis: two-way anova+Dunnett's multiple comparisons test.

Where [4] appears, read: hypoxia (0.5% O2), FIG. 2: SW480 cells, 6 h.
The mark [5] stands for this setting: normoxia (21% O2), FIGS. 1, 3, 4: SW480, RCC4 cells, 6 h.

Regarding `CC1=NN(c2ccc(C(=O)O)cc2)C(=O)/C1=C/c1ccc(-c2cc(C)c(C)cc2[N+](=O)[O-])o1` [C 646], in the test with VEGF [1], the VEGF expression result is listed as “increase”. The “expression of HIF-1α” value in the test with HIF-1α (setting [4]) and in the test on HIF-1α (setting [5]) was “increase” in each case.

For the compound `CCc1ccc(/C=C/C(=O)Nc2ccc(C(C)=O)cc2)o1` [Heclin], in the test on VEGF [1], the VEGF expression result is “increase”. Also, the “expression of HIF-1α” value in the test on HIF-1α (setting [4]) and in the test with HIF-1α (setting [5]) was “increase” in each case.

`O=C(O)c1ccc(N2C(=O)C(=Cc3ccc(-c4ccc([N+](=O)[O-])cc4)o3)C=C2c2ccccc2)cc1` [4E1Rcat]: the VEGF expression entry in the test on VEGF [1] was “increase”. In the test with HIF-1α (HCT116, normoxia, 6, 8 or 10 hours (FIG. 29)), the HIF-1α expression entry was “increases”. Besides, the “expression of HIF-1α” value with HIF-1α (HT29 (colorectal cancer) cells, normoxia 6 h (FIG. 30)) is “increases”; with HIF-1α (PANC1 (pancreatic cancer) cells, normoxia 6 h (FIG. 30)), “increases”; in the test on HIF-1α (setting [4]) it was “increase”; with HIF-1α (setting [5]) it was “increase”. In addition, the “expression of PGK1 as measured in a luciferase assay” value in the test with PGK1 is “increases”. The “VEGF upregulation as measured by a luciferase assay, despite incubation with siRNA EIF4E” value is “upregulated” with VEGF [2] (HCT116, hypoxia 6 h, two different eIF4E siRNAs for 48 hours (FIG. 26)); “upregulated” in the test with VEGF [2] (HCT116, normoxia 6 h, two different eIF4E siRNAs for 48 hours (FIG. 25)); “upregulated” in the test on VEGF [2] (SW480, hypoxia 6 h, two different eIF4E siRNAs for 48 hours (FIG. 28)); “upregulated” with VEGF [2] (SW480, normoxia 6 h, two different eIF4E siRNAs for 48 hours (FIG. 27)). Further, the “expression of VEGF as measured in a luciferase assay” value with VEGF [2] (HCT116 and SW480, normoxia and hypoxia, 6 h (FIGS. 5-24)) is “increases”. The “erythropoietin (EPO) mRNA expression” value in test [3] is “increases”.

With `CCOC(=O)c1ccc(N2NC(=O)/C(=C/c3ccc([N+](=O)[O-])o3)C2=O)cc1` [PYR 41], in the test on VEGF [1], the VEGF expression result is “increase”. The HIF-1α expression result was “increases” in the test with HIF-1α (HCT116, hypoxia (FIG. 32)); “increases” in the test on HIF-1α (RCC4 renal cell carcinoma cells, normoxia (FIG. 32)); “increases” with HIF-1α (SW480, hypoxia (FIG. 32)); “increases” with HIF-1α (SW480, normoxia (FIG. 32)). In addition, the “expression of HIF-1α” value in the test on HIF-1α (setting [4]) and with HIF-1α (setting [5]) was “increase” each time.

The record behind these values is patent US20260306440A1, “USE OF SMALL MOLECULES TO INCREASE HYPOXIA INDUCIBLE FACTOR (HIF) ACTIVITY” (BROWN UNIVERSITY, priority 2023, published 2026).
